Assay: Study HDP-CDV-201: safety and tolerability (adverse events, laboratory abnormalities, discontinuations)
Type: in vivo, human (adult allogeneic HSCT recipients)
Details: 200 mg BIW
Procedure: Clinical Studies of HDP-CDV were performed and described in detail in the following Examples. For example, HDP-CDV-201 is a placebo-controlled, dose-escalating trial in HSCT CMV (R+) recipients, evaluating the ability of HDP-CDV to prevent or control CMV infection was carried out. Five cohorts were established in which participants or subjects received either placebo or the HDP-CDV orally, in doses ranging from 40 mg weekly (QW) to 200 mg twice weekly (BIW). Subjects who were post-HSCT were enrolled at the time of engraftment and randomized to HDP-CDV or placebo (3 to 1 ratio) and received blinded therapy until approximately 100 day post-transplantation. HDP-CDV doses were 40 mg QW, 100 mg QW, 200 mg QW, 200 mg BIW and 100 mg BIW. Escalation to the next dose was decided by the data monitoring committee after review of the safety data from the previous Cohort. Subjects who developed CMV disease or CMV infection requiring pre-emptive therapy with local standard of care were discontinued from blinded therapy and followed for 4 weeks. Subjects who completed treatment with blinded therapy were followed for 8 weeks post-therapy.
Data from Study HDP-CDV-201 also provided characterization of the safety and tolerability profile of HDP-CDV when administered for the prevention or control of CMV infection in high risk (R^+) post-HSCT adult subjects.
The Safety population (SAFETY) included all randomized subjects who took at least one dose of study treatment. This population was used to summarize safety outcomes based on the treatment actually received, in cases where a subject was treated contrary to the randomization schedule.
The safety and tolerability profile of HDP-CDV, including subject demographics and Baseline characteristics; the AE profile; and laboratory abnormalities of interest were analyzed in the cohorts followed in this investigation.
Subjects completing the treatment period received a full course of study medication; those completing the entire study attended visits through 8 weeks of follow up. Subjects who discontinued treatment may have done so for protocol specified reasons (e.g. development of clinically significant CMV infection requiring preemptive treatment with excluded anti-CMV medications) or for other reasons (e.g., withdrawal, adverse events, loss to follow-up). The disposition of subjects in Study HDP-CDV-201 during the double-blind, placebo-controlled treatment period (through Week 11) is listed by dosing Cohort in TABLE 23.
Adverse events were examined by severity to ensure that all safety signals were identified in this study population. Because of the frequency of events in HSCT recipients, particular attention was given to evaluation of Grade 3 […], 4 (severe), and 5 (fatal) adverse events.
Only those preferred terms for which at least one Grade 3 or higher event was experienced in any treatment group are listed. Cytomegalovirus-related AEs are excluded from this analysis.
HDP-CDV is a lipid conjugate of CDV. Because CDV is known to have adverse effects on renal function and bone marrow, decreased GFR and persistent neutropenia were identified as AEs of special interest. Key renal and hematological (TABLE 30) laboratory parameters were measured and listed below by Study HDP-CDV-201 treatment groups. TABLE 30 includes abnormal levels of serum creatinine, neutrophils, platelets, WBCs, and hemoglobin and includes data at Screening and during the treatment period.
A common metric for unit based dosing of medications is by weight (mg/kg). When the distribution of weights was examined for all subjects participating in the study, the median was 78 kg and the lower 25th percentile weight was approximately 65 kg, which translates to a cut-off of ˜3 mg/kg for a 200 mg total weekly dose. Based upon this approach, a cut-off of 3 mg/kg was used to assess the frequency of diarrhea and associated GI AEs reported for the subjects in Cohorts 3 or 4a (TABLE 40).

For CCCCCCCCCCCCCCCCOCCCOP(=O)(O)COC(CO)Cn1ccc(N)nc1=O (stereo not drawn) [HDP-CDV], the “TEAE Abdominal pain, Grade 3” value was 0, the “TEAE Abdominal pain, Grade 4” value was 0 and the “TEAE Abdominal pain, Grade 5” value was 0. The “TEAE Acute GVHD, Frequency” value was 24 (80.0%), the “TEAE Acute GVHD, Grade 2” value was 8 (26.6%) and the “TEAE Acute GVHD, Grade 3” value was 10 (30.0%). The “TEAE Acute GVHD, Grade 4” value was 2 (6.7%), the “TEAE Acute GVHD, Grade 5” value was 3 (10.0%) and the “TEAE Arthralgias, Frequency” value was 1 (3.3%). The “TEAE Arthralgias, Grade 2” value was 1 (3.3%), the “TEAE Arthralgias, Grade 3” value was 0 and the “TEAE Arthralgias, Grade 4” value was 0. For the same compound, the “TEAE Arthralgias, Grade 5” value was 0, the “TEAE Back Pain, Frequency” value was 3 (10.0%) and the “TEAE Back Pain, Grade 2” value was 1 (3.3%). The “TEAE Back Pain, Grade 3” value was 0, the “TEAE Back Pain, Grade 4” value was 0 and the “TEAE Back Pain, Grade 5” value was 0. For the same compound, the “TEAE Decreased appetite, Frequency” value was 5 (16.7%), the “TEAE Decreased appetite, Grade 2” value was 4 (13.3%) and the “TEAE Decreased appetite, Grade 3” value was 0. For the same compound, the “TEAE Decreased appetite, Grade 4” value was 0, the “TEAE Decreased appetite, Grade 5” value was 0 and the “TEAE Diarrhea, Frequency” value was 21 (70.0%). The “TEAE Diarrhea, Grade 2” value was 8 (26.7%), the “TEAE Diarrhea, Grade 3” value was 11 (36.7%) and the “TEAE Diarrhea, Grade 4” value was 0. For the same compound, the “TEAE Diarrhea, Grade 5” value was 0, the “TEAE Fatigue, Frequency” value was 0 and the “TEAE Fatigue, Grade 2” value was 0. The “TEAE Fatigue, Grade 3” value was 0, the “TEAE Fatigue, Grade 4” value was 0 and the “TEAE Fatigue, Grade 5” value was 0. For the same compound, the “TEAE GGT Increased, Frequency” value was 3 (10.0%), the “TEAE GGT Increased, Grade 2” value was 0 and the “TEAE GGT Increased, Grade 3” value was 1 (3.3%). The “TEAE GGT Increased, Grade 4” value was 1 (3.3%), the “TEAE GGT Increased, Grade 5” value was 0 and the “TEAE Generalized oedema, Frequency” value was 3 (10.0%). For the same compound, the “TEAE Generalized oedema, Grade 2” value was 0, the “TEAE Generalized oedema, Grade 3” value was 2 (6.7%) and the “TEAE Generalized oedema, Grade 4” value was 0. The “TEAE Generalized oedema, Grade 5” value was 0, the “TEAE Hyperbilirubinaemia, Frequency” value was 5 (16.7%) and the “TEAE Hyperbilirubinaemia, Grade 2” value was 1 (3.3%). The “TEAE Hyperbilirubinaemia, Grade 3” value was 0, the “TEAE Hyperbilirubinaemia, Grade 4” value was 1 (3.3%) and the “TEAE Hyperbilirubinaemia, Grade 5” value was 0. The “TEAE Hyperglycaemia, Frequency” value was 8 (26.7%), the “TEAE Hyperglycaemia, Grade 2” value was 5 (16.7%) and the “TEAE Hyperglycaemia, Grade 3” value was 2 (6.7%). The “TEAE Hyperglycaemia, Grade 4” value was 0, the “TEAE Hyperglycaemia, Grade 5” value was 0 and the “TEAE Hyperkalemia, Frequency” value was 3 (10.0%). The “TEAE Hyperkalemia, Grade 2” value was 1 (3.3%), the “TEAE Hyperkalemia, Grade 3” value was 1 (3.3%) and the “TEAE Hyperkalemia, Grade 4” value was 0. For the same compound, the “TEAE Hyperkalemia, Grade 5” value was 0, the “TEAE Hypocalcaemia, Frequency” value was 3 (10.0%) and the “TEAE Hypocalcaemia, Grade 2” value was 1 (3.3%). The “TEAE Hypocalcaemia, Grade 3” value was 1 (3.3%), the “TEAE Hypocalcaemia, Grade 4” value was 0 and the “TEAE Hypocalcaemia, Grade 5” value was 0. For the same compound, the “TEAE Hypokalaemia, Frequency” value was 5 (16.7%), the “TEAE Hypokalaemia, Grade 2” value was 1 (3.3%) and the “TEAE Hypokalaemia, Grade 3” value was 1 (3.3%). For the same compound, the “TEAE Hypokalaemia, Grade 4” value was 0, the “TEAE Hypokalaemia, Grade 5” value was 0 and the “TEAE Hyponatraemia, Frequency” value was 2 (6.7%). The “TEAE Hyponatraemia, Grade 2” value was 0, the “TEAE Hyponatraemia, Grade 3” value was 0 and the “TEAE Hyponatraemia, Grade 4” value was 0. The “TEAE Hyponatraemia, Grade 5” value was 0, the “TEAE LFT Abnormal, Frequency” value was 3 (10.0%) and the “TEAE LFT Abnormal, Grade 2” value was 1 (3.3%). For the same compound, the “TEAE LFT Abnormal, Grade 3” value was 1 (3.3%), the “TEAE LFT Abnormal, Grade 4” value was 0 and the “TEAE LFT Abnormal, Grade 5” value was 0. The “TEAE Leukocytosis, Frequency” value was 3 (10.0%), the “TEAE Leukocytosis, Grade 2” value was 1 (3.3%) and the “TEAE Leukocytosis, Grade 3” value was 0. For the same compound, the “TEAE Leukocytosis, Grade 4” value was 0, the “TEAE Leukocytosis, Grade 5” value was 0 and the “TEAE Nausea, Frequency” value was 11 (36.7%). For the same compound, the “TEAE Nausea, Grade 2” value was 6 (20.0%), the “TEAE Nausea, Grade 3” value was 1 (3.3%) and the “TEAE Nausea, Grade 4” value was 0. The “TEAE Nausea, Grade 5” value was 0, the “TEAE Neutropenia, Frequency” value was 4 (13.3%) and the “TEAE Neutropenia, Grade 2” value was 0. For the same compound, the “TEAE Neutropenia, Grade 3” value was 1 (3.3%), the “TEAE Neutropenia, Grade 4” value was 2 (6.7%) and the “TEAE Neutropenia, Grade 5” value was 0. The “TEAE Pneumonia, Frequency” value was 1 (3.3%), the “TEAE Pneumonia, Grade 2” value was 0 and the “TEAE Pneumonia, Grade 3” value was 1 (3.3%). The “TEAE Pneumonia, Grade 4” value was 0, the “TEAE Pneumonia, Grade 5” value was 0 and the “TEAE Pyrexia, Frequency” value was 2 (6.7%). For the same compound, the “TEAE Pyrexia, Grade 2” value was 0, the “TEAE Pyrexia, Grade 3” value was 0 and the “TEAE Pyrexia, Grade 4” value was 0. The “TEAE Pyrexia, Grade 5” value was 0, the “TEAE Renal Failure, Frequency” value was 0 and the “TEAE Renal Failure, Grade 2” value was 0. For the same compound, the “TEAE Renal Failure, Grade 3” value was 0, the “TEAE Renal Failure, Grade 4” value was 0 and the “TEAE Renal Failure, Grade 5” value was 0. For the same compound, the “TEAE Staphylococcal Bacteremia, Frequency” value was 1 (3.3%), the “TEAE Staphylococcal Bacteremia, Grade 2” value was 0 and the “TEAE Staphylococcal Bacteremia, Grade 3” value was 1 (3.3%).

From patent US20140303092A1 (CHIMERIX, INC., priority 2011, published 2014)
